Patent US5340823A, “Organosilane derivatives, pharmaceutical compositions containing them and process for preparing same” (Richter Gedeon Vegyeszeti Gyar RT., priority 1990, dated 1994)
Where two headings read alike, the source gives them in different places.

What was measured:
[1] = tested on: GYKI-20039-induced tremor; assay: GYKI-20039-induced tremor test on mice; assay type: in vivo, mice (male CFLP); settings: for ED50: Mus musculus
Description: After administration of the test substance the mice were suspended on an isometric dynamometer in a light plastic box and the strength of the tremor was measured and quantified by electronic integration. The tremor strength of mice was averaged in the 4th-5th minutes following the treatment with 10 the test substance.
The animals were pretreated with various doses of the muscle relaxants to be tested before administration of the test substance. The time of pretreatment was 0 in intravenous examinations, whereas a pretreatment time of 10 minutes was used in oral investigations.
(§1) For the verification of the oral activity the tremor test was used on mice whereas the flexor reflex was investigated by using intraduodenal (i.d.) administration.

flexor reflex = assay: Flexor reflex on anaesthetized cats; assay type: in vivo
Description: Method 3: Flexor reflex on anaesthetized cats
Chloralose-anaesthetized cats of both sexes weighing 2.2 to 5.4 kg each were used in these experiments. The flexor reflex of the animals was assessed by using the quantitative electromyographic method of Farkas et al. [Pharmacol. Res. Comm. 20, Suppl. 1, 141 (1988)].
[…] For characterization of duration of the effect the time (T75%) is shown, which passed after administration of this dose up to the return to 75% of the control value.
as §1

[2] = Acute toxicity and therapeutic ratio on mice; assay type: in vivo; settings: mouse, in vivo; for selectivity ratio: mice, LD50 to tremor ED50
Description: (§2) Method 4: Study on the acute toxicity
(§3) These experiments were carried out on groups consisting of 10 male and 10 female mice each weighing 19 to 21 g. For the determination of the intravenous toxicity the substances to be tested were dissolved in 10 ml/kg of body-weight of physiological saline and injected to the tail vein of CFLP mice during 1 minute. For evaluation of the oral toxicity the substances to be tested were dissolved in 10 ml/kg of body-weight of physiological saline and introduced to the stomach of OF-1 mice by using a rigid gastric tube. The perishing ratio of the animals was evaluated by 48 hours following the administration of the substance to be tested. The LD50 value, i.e. the dose causing the death of 50% of the animals was calculated by using the method of Litchfield and Wilcoxon. The therapeutic (safety) ratio was determined as the ratio of the LD50 value to ED50 value shown in the GYKI-20039-induced tremor test.

Straub's tail = Straub's tail test (morphine hydrochloride) on mice; assay type: in vivo, mice (male OF-1); settings: for ED50: Mus musculus, ip, read-out: Straub's tail ED50 i.p.
Description: Method 2: Straub's tail test
The method of Novack [Drug Development Res. 2, 383 (1982)] was used with some modification. Groups consisting of 10 male OF-1 mice each weighing 19 to 21 g were intraperitoneally treated with 60 mg/kg of morphine hydrochloride. The formation (development) of Straub's stail was judged by 15 minutes after the morphine treatment. It was considered to be positive when the animal permanently kept his tail upwards in an angle being steeper than 45°. A pretreatment was carried out with various doses of the compound to be tested by 20 minutes before the time of reading. The ED50 value, i.e. the dose inhibiting the positive response in 50% of the animals, was calculated by using the method of Litchfield and Wilcoxon.
(The above author found a good correlation between the effectivity shown in this test method and the clinical effect of central muscle relaxants.)

mice = assay: Acute toxicity and therapeutic ratio on mice; assay type: in vivo; settings: mice, i.v. and oral
Description: as §2, §3

[3] = tested on: GYKI-20039-induced tremor; settings: mice; literature (Coward et al.; Andrasi et al.); cited from earlier work
[4] = iv, Table 3, read-out: Muscle relaxant effect, Tremor ED50 i.v.
[5] = iv, pretreatment time 0, Table 1, read-out: GYKI-20039 (tremor) ED50 i.v.
[6] = po, Table 3, read-out: Muscle relaxant effect, Tremor ED50 p.o.
[7] = po, pretreatment 10 minutes, Table 2, read-out: Tremor test ED50 p.o.
[8] = 10 mg/kg i.v., time up to return to 75% of control
[9] = iv, CFLP mice, i.v., read-out: Acute toxicity LD50 i.v.
[10] = iv, i.v., read-out: Therapeutic ratio LD50/ED50 i.v.
[11] = po, OF-1 mice, p.o., read-out: Acute toxicity LD50 p.o.
[12] = po, p.o., read-out: Therapeutic ratio LD50/ED50 p.o.
[13] = mice, i.p., 60 mg/kg morphine hydrochloride, Table 1

CCc1ccc(C(=O)C(C)CN2CCCCC2)cc1 (centres unmarked) [Eperisone, eperisone, reference compound]
ED50 [1, 4]: 7.8 mg/kg
ED50 [1, 5]: 7.8 mg/kg
ED50 [1, 6]: 126 mg/kg
ED50 [1, 7]: 126 mg/kg
Flexor reflex, duration of effect T75% (flexor reflex; [8]): 90 min
Flexor reflex, T75% (flexor reflex; 25 mg/kg i.d.): 60 min
Flexor reflex, maximum inhibition (flexor reflex; 25 mg/kg i.d.): 38.5%
Flexor reflex, T75% (flexor reflex; 50 mg/kg i.d.): 190 min
Flexor reflex, maximum inhibition (flexor reflex; 50 mg/kg i.d.): 74.8%
LD50 at 48 h [2, 9]: 53.4 mg/kg
selectivity ratio [2, 10]: 6.8
LD50 at 48 h [2, 11]: 320 mg/kg
selectivity ratio [2, 12]: 2.5
ED50 (Straub's tail; [13]): 63.6 mg/kg

C[Si](C)(Cc1ccc(F)cc1)CN1CCCCC1.Cl [Example 2, N-{[dimethyl-(4-fluorobenzyl)silyl]methyl}piperidine hydrochloride]
ED50 [1, 4]: 2.8 mg/kg
ED50 [1, 5]: 2.8 mg/kg
ED50 [1, 6]: 27.6 mg/kg
ED50 [1, 7]: 27.6 mg/kg
activity relative to eperisone ([1]; oral route): 5 times
activity relative to tolperisone ([1]; oral route): 10 times
Flexor reflex, duration of effect T75% (flexor reflex; [8]): > 180 min
Flexor reflex, T75% (flexor reflex; 12.5 mg/kg i.d.): 230 min
Flexor reflex, maximum inhibition (flexor reflex; 12.5 mg/kg i.d.): 44.8%
Flexor reflex, T75% (flexor reflex; 25 mg/kg i.d.): > 300 min
Flexor reflex, maximum inhibition (flexor reflex; 25 mg/kg i.d.): 82.1%
duration of effect compared with 4-fold doses of the reference drugs (flexor reflex; i.d.): exceeded even the duration of effect of 4-fold doses of the reference drugs
dose needed to achieve a given effect relative to the dose of the reference drugs (flexor reflex; i.d., vs tolperisone and eperisone): half of the dose
therapeutic ratio in comparison to the reference drugs (mice): significantly more advantageous
LD50 at 48 h [2, 9]: 25.5 mg/kg
selectivity ratio [2, 10]: 9.1
LD50 at 48 h [2, 11]: 228 mg/kg
selectivity ratio [2, 12]: 8.3
ED50 (Straub's tail): 21.8 mg/kg

C[Si](C)(Cc1ccc(F)cc1)CN1CCCC1.Cl [Example 10, N-{[dimethyl-(4-fluorobenzyl)silyl]methyl}-pyrrolidine hydrochloride]
ED50 [1, 5]: 2.8 mg/kg
Flexor reflex, duration of effect T75% (flexor reflex; [8]): > 180 min
ED50 (Straub's tail): 22 mg/kg

C[Si](C)(CCCN1CCCC1)Cc1ccc(F)cc1.Cl [Example 11, N-{[dimethyl-(4-fluorobenzyl)silyl]propyl}pyrrolidine hydrochloride]
ED50 [1, 5]: 3.8 mg/kg
Flexor reflex, duration of effect T75% (flexor reflex; [8]): > 180 min
ED50 (Straub's tail): 27.5 mg/kg

C[Si](C)(CCCn1ccnc1)Cc1ccc(F)cc1.Cl [Example 12, N-{[dimethyl-(4-fluorobenzyl)silyl]propyl}imidazole hydrochloride]
ED50 [1, 5]: 5.4 mg/kg
inhibition of flexor reflex (flexor reflex; 10 mg/kg i.v.): 40%
Flexor reflex, duration of effect T75% (flexor reflex; [8]): > 180 min
ED50 (Straub's tail): 26.9 mg/kg

C[Si](C)(CCCN1CCCCC1)Cc1ccccc1.Cl [Example 19, N -[(benzyldimethylsilyl)propyl]piperidine hydrochloride]
ED50 [1, 5]: 3.6 mg/kg
Flexor reflex, duration of effect T75% (flexor reflex; [8]): > 180 min
ED50 (Straub's tail): 22.3 mg/kg

Cc1ccc(C[Si](C)(C)N2CCCCC2)c(C)c1.Cl [Example 34]
GYKI-20039 (tremor) ED50 i.v. ([1]; i.v., pretreatment time 0, Table 1): 8.7 mg/kg
Flexor reflex, duration of effect T75% (flexor reflex; i.v., 5 mg/kg (footnote *)): 120 min
inhibition of flexor reflex (flexor reflex; i.v., 5 mg/kg (footnote *)): 53%
Straub's tail ED50 i.p. (Straub's tail; [13]): 30.7 mg/kg

Cc1ccc(Cl)c(C[Si](C)(C)CN2CCCCC2)c1.Cl [Example 35, N-{[(2-chloro-5-methylbenzyl)-dimethylsilyl]methyl}piperidine hydrochlorid]
ED50 [1, 5]: 3.7 mg/kg
Flexor reflex, duration of effect T75% (flexor reflex; [8]): > 180 min
ED50 (Straub's tail): 25.9 mg/kg

N=C1SCCN1c1c(Cl)cccc1Cl [GYKI-20039, reference compound]
induction of tremor [1]: induces a tremor on mice

Cl.N=C(Cc1c(Cl)cccc1Cl)NC(N)=O [LON-954]
induction of tremor [3]: induces a tremor on mice

Cc1ccc(C(=O)C(C)CN2CCCCC2)cc1 (centres unmarked) [Tolperisone, tolperisone, reference compound]
ED50 [1, 4]: 10.1 mg/kg
ED50 [1, 6]: 338 mg/kg
ED50 [1, 7]: 338 mg/kg
Flexor reflex, duration of effect T75% (flexor reflex; [8]): 50 min
Flexor reflex, T75% (flexor reflex; 25 mg/kg i.d.): 60 min
Flexor reflex, maximum inhibition (flexor reflex; 25 mg/kg i.d.): 33.1%
Flexor reflex, T75% (flexor reflex; 50 mg/kg i.d.): 140 min
Flexor reflex, maximum inhibition (flexor reflex; 50 mg/kg i.d.): 76.6%
LD50 at 48 h [2, 9]: 39.8 mg/kg
selectivity ratio [2, 10]: 3.9
LD50 at 48 h [2, 11]: 612 mg/kg
selectivity ratio [2, 12]: 1.8
ED50 (Straub's tail; [13]): 63 mg/kg
